These results are taken from patent publication US10287311B2, “Modified fluorinated nucleoside analogues” (priority 2003, dated 2019).

Read-outs that look alike come from different tables or passages of the source.

Data set [1] has as its system West Nile virus. The data set can be described thus: Antiviral activity, West Nile virus in Vero cells. As to conditions: for EC50: West Nile virus, West Nile, Vero. Format: cell-based.
Data set [2] concerns BVDV. The data set can be described thus: (BVDV) yield reduction assay. The data set is classed as cell-based, bovine viral diarrhea virus. As to conditions: for EC90: Bovine viral diarrhea virus isolates and strains. As to the method: Madin-Darby Bovine Kidney (MDBK) cells were grown in Dulbecco's modified eagle medium supplemented with 10% horse serum and 100 μg/ml penicillin-streptomycin. Cells were seeded in a 96-well plate at 5×10^3 cells/well and incubated for 72h at 37° C. in a humidified 5% CO2 atmosphere. Cells were infected with either cytopathic (NADL strain) or noncytopathic (SD-1 strain) BVDV at a virus dilution of 10-2 and incubated for 45 min. Cell monolayers were washed three times with medium. Fresh medium-containing test compounds in dose response concentrations or ribavirin, as a positive control, were added to cultures and medium containing no drug was added to the no-drug controls. After 72h incubation, supernatant was collected and viral RNA was extracted using the QIAmp Viral RNA Mini Kit (Qiagen, CA). Viral load was determined by Q-RT-PCR using primers specific for either NADL or SD-1 (1).

In data set [3] the test system is HIV. Nature of the data set: microbe, parasite or virus in culture. The data set is classed as cell-based.
Data set [4] relates to HBV. The data set can be described thus: Antiviral activity, HBV. The data set is classed as cell-based.
Data set [5] is described as follows: Cytotoxicity assay (MTS), all cell lines tested. Format: cell-based. As to conditions: human, bovine, African green monkey, Clone A, Huh7, HepG2, MDBK, PBM, CEM, Vero and MRC-5 cells; summary in text over all cell lines. As to the method: (§1) 50 μl of 2× drug dilutions were added per well in a 96 well plate. Final concentrations of drug ranged from 1 to 100 μM. A “no drug” (media only) control was used to determine the minimum absorbance values and a “cells+media only” control was used for maximum absorbance value. A solvent control was also used. Cells were then added (PBM: 5×10^4 cells/well; CEM: 2.5×10^3 cells/well; Vero, HepG2, Huh-7, and Clone A: 5×10^3 cells/well) and incubated at 37° C. in a humidified 5% CO2 atmosphere for 3-5 days (PBM: 5 days; CEM: 3 days, all others: 4 days). After incubation, 20 μl of MTS dye was added from Cell Titer Aqueous One Solution Cell Proliferation Assay to each well and the plate was re-incubated for 2-4 hours. The absorbance (490 nm) was then read on an ELISA plate reader using the media only/no cell wells as blanks. Percent inhibition was found and used to calculate the CC50.
In contrast is the relative toxicity of 2′-C-methyladenosine.

Data set [6] is described as follows: Cytotoxicity assay (MTS), Huh7. Conditions: human, Huh7 cells. The data set is classed as cell-based. As to the method: as §1
A short description of data set [7]: Pharmacokinetics in Rhesus monkeys. As to conditions: single oral dose 33.3 mg/kg, Mean ± SD, preliminary. The data set is classed as in vivo. As to the method: FIG. 3 depicts the pharmacokinetics of β-D-(2′R)-2′-deoxy-2′-fluoro-2′-C-methylcytidine in Rhesus monkeys given a single dose (33.3 mg/kg) oral or intravenous dose of β-D-(2′R)-2′-deoxy-2′-fluoro-2′-C-methylcytidine.

In the case of `C[C@@]1(F)[C@H](O)[C@@H](CO)O[C@H]1n1ccc(N)nc1=O`, the “activity against West Nile virus (in words)” value in data set [1] is “shows activity”. Besides, the EC50 in data set [1] (NR = Neutral Red, read-out: EC50, NR) was determined as 12 µM; in data set [1] (read-out: EC50, CPE), 32 µM. Also, the “activity on HCV surrogate model BVDV (in words)” value in data set [2] is listed as “lack of activity”. The EC90 in data set [2] (BVDVcp) is greater than 100 µM; in data set [2] (BVDVncp), greater than 22 µM; in data set [3] (Human immunodeficiency virus 1, HIV), greater than 100 µM; in data set [4] (Hepatitis B virus, HBV), greater than 10 µM. In addition, the “activity on HIV (in words)” value in data set [3] is “lack of activity”. The “activity on HBV (in words)” value in data set [4] is recorded as “lack of activity”. In data set [5], the CC50 lay in the range of 75 to 100 µM. For the same compound, the CC50 at 4 days in data set [6] is greater than 100 µM. In data set [7] (rhesus monkey, in vivo), this compound registered an AUC(0-t) of 44.2 ± 22.2 µM·h. In addition, the half-life in data set [7] (rhesus monkey, in vivo, read-out: T ½ (converted)) is 3.9 ± 0.1 h. Further, in data set [7], the Bioavailability came out at 21 ± 11 F %. Moreover, the Cmax in data set [7] was 9.6 ± 2.7 µM. The Tmax in data set [7] was found to be 2 ± 1 h.
